Measurements published in US20180081270A1, “RADIATION-SENSITIVE COMPOSITION, AMORPHOUS FILM, AND METHOD FOR FORMING RESIST PATTERN” (Mitsubishi Gas Chemical Company, Inc., priority 2015, published 2018).

Columns and labels:
[1] = Solubility in PGME and PGMEA at 23° C.; type: physicochemical; settings: for solubility in PGME and PGMEA (dissolution amount): 1-methoxy-2-propanol (PGME) and propylene glycol monomethyl ether acetate (PGMEA)
Method: The dissolution amount of the compound in 1-methoxy-2-propanol (PGME) and propylene glycol monomethyl ether acetate (PGMEA) was measured at 23° C., and the results were evaluated according to the following criteria.
Evaluation A: 20% by mass or more Evaluation B: 10% by mass or more and less than 20% by mass Evaluation C: less than 10% by mass

[2] = 10% thermal reduction temperature by thermogravimetry (TG); type: physicochemical; settings: 10° C./min to 500° C., nitrogen gas stream
Method: “EXSTAR 6000 DSC apparatus” manufactured by SII NanoTechnology Inc. was used. About 5 mg of a sample was placed in an unsealed container made of aluminum, and the temperature was raised to 500° C. at a temperature increase rate of 10° C./min in a nitrogen gas (30 mL/min) stream. In this operation, 10% thermal reduction temperature was measured.

For `Oc1ccc(-c2ccc(O)c(C(c3ccc(I)cc3)c3cc(-c4ccc(O)cc4)ccc3O)c2)cc1` [BiF-I-1], the “solubility in PGME and PGMEA (dissolution amount)” value (from here on “solubility … (dissolution amount)”) [1] was at least 30 % by mass, the “solubility in PGME and PGMEA (evaluation)” value (from here on “solubility … (evaluation)”) [1] was “A (Evaluation A: 20% by mass or more)” and the “10% thermal reduction temperature” value [2] was at least 400 °C.
For `COc1cc(C(c2cc(-c3ccc(O)cc3)ccc2O)c2cc(-c3ccc(O)cc3)ccc2O)cc(O)c1I` [BiF-I-2], the “solubility … (dissolution amount)” value [1] was at least 30 % by mass, the “solubility … (evaluation)” value [1] was “A (Evaluation A: 20% by mass or more)” and the “10% thermal reduction temperature” value [2] was at least 400 °C.
With `Oc1ccc(-c2ccc(O)c(C(c3cccc(I)c3)c3cc(-c4ccc(O)cc4)ccc3O)c2)cc1` [BiF-I-3] the “solubility … (dissolution amount)” value [1] was at least 30 % by mass, the “solubility … (evaluation)” value [1] was “A (Evaluation A: 20% by mass or more)” and the “10% thermal reduction temperature” value [2] was at least 300 °C.
